In US9580390B2, “Indazole compounds as kinase inhibitors and method of treating cancer with same” (University Health Network, priority 2011, dated 2017) one finds GI50 and IC50 data, which are given here for 15 compounds.

As usually defined, the GI50 is the concentration giving 50% growth inhibition. Usually IC50 stands for the concentration at which inhibition is half-maximal.

One experiment has as its system TICs (Ovarian 2393A). Briefly: Ovarian tumor-initiating cell growth inhibition (Alamar Blue). The format is cell-based. Conditions: 144 h; Ovarian 2393A TICs, 6 days; read-out: Tumor Initiating Cell GI50 Range Ovarain 2393A. Background: Resazurin is reduced to fluorescent resorufin, in cell work by metabolically active cells.
The next experiment deals with Breast cancer cells. Briefly: Cancer cell line growth inhibition (SRB assay). It counts as cell-based. Conditions: Homo sapiens; MDA-MB-468; read-out: Cancer Cell Line GI50 Range MDA-MB-468.
Experiment [1] concerns colon cancer cells (HCT116). Briefly: Cancer cell line growth inhibition (SRB assay). It counts as cell-based. Conditions: Homo sapiens, HCT-116; read-out: Cancer Cell Line GI50 Range HCT116.
Experiment [2] deals with ovarian cancer cells (PA-1). Briefly: Cancer cell line growth inhibition (SRB assay). The format is cell-based. Conditions: Homo sapiens, PA-1; read-out: Cancer Cell Line GI50 Range PA-1. In general terms: The SRB assay estimates cell density from bound dye.
Experimental: Breast cancer cells (MDA-MB-231), colon cancer cells (HCT116) and ovarian cancer cells (PA-1) were seeded (1000 to 4000 in 80 μl per well depending on the cell growth rate) into 96 well plates 24 hours before compound overlay. Compounds were prepared as 10 mM stock solutions in 100% DMSO which were diluted with DMEM (Dulbecco's Modified Eagle's Medium) cell growth Medium (Invitrogen, Burlington, ON, Canada) containing 10% FBS (Fetal Bovine Serum) to concentrations ranging from 50 nM to 250 μM. Aliquots (20 μl) from each concentration were overlaid to 80 μl of the pre-seeded cells in the 96 well plates to make final concentrations of 10 nM to 50 μM. The cells were cultured for 5 days before the Sulforhodamine B assay (SRB) was performed to determine the compound's cell growth inhibition activity.
Sulforhodamine B (purchased from Sigma, Oakville, ON, Canada) is a water-soluble dye that binds to the basic amino acids of the cellular proteins. Thus, colorimetric measurement of the bound dye provides an estimate of the total protein mass that is related to the cell number. the cells are fixed in situ by gently aspirating off the culture media and adding 50 μl ice cold 10% Trichloroacetic Acid (TCA) per well and incubate at 4° C. for 30-60 min. The plates are washed with H2O five times and allowed to air dry for 5 min. Addition of 50 μl 0.4% (w/v) SRB solution in 1% (v/v) acetic acid to each well and incubation for 30 min at RT completes the staining reaction. Following staining, plates are washed four times with 1% acetic acid to remove unbound dye and then allowed to air dry for 5 min. The stain is solubilized with 100 μl of 10 mM Tris pH 10.5 per well. Absorbance is read at 570 nm.
The percentage (%) of relative growth inhibition was calculated by comparing to DMSO treated only cells (100%). GI50's were determined for compounds with cytotoxic activity. The GI50 was calculated using GraphPad PRISM software (GraphPad Software, Inc., San Diego, Calif., USA).
A further experiment addresses T1, human TTK (Homo sapiens, UniProt P33981).
T1 construct: amino terminal GST fusion of full length human TTK; purchased Invitrogen
T1 sequence (P33981 1-857): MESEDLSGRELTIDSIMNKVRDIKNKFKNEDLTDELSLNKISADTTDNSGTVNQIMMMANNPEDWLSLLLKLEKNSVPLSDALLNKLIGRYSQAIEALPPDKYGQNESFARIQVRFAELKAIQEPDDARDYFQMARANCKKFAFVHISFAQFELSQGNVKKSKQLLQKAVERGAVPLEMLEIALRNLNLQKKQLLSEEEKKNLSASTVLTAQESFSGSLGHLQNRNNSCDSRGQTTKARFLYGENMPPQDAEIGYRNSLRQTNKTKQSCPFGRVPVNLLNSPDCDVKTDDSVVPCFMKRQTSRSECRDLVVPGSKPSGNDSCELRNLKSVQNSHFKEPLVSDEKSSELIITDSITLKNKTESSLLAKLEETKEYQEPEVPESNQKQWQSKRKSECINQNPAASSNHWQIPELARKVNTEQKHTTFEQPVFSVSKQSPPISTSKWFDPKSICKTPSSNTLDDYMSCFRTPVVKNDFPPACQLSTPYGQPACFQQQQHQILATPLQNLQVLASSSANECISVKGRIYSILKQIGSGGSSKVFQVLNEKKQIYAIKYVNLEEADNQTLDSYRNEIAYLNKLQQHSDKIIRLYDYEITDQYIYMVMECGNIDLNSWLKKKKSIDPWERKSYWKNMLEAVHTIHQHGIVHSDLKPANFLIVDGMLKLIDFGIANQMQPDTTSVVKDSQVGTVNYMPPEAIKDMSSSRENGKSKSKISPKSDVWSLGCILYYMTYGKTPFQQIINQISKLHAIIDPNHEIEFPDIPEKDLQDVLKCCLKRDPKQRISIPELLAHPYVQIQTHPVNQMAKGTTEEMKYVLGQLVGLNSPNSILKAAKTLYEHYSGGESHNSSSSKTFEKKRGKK
Briefly: TTK inhibition assay (indirect ELISA). The format is biochemical. Conditions: read-out: TTK IC50 Range. (ELISA stands for enzyme-linked immunosorbent assay.)

The test system of the next experiment is TICs (Colon 12). Briefly: Colon tumor-initiating cell growth inhibition (Alamar Blue). The format is cell-based. Conditions: 216 h; Colon 12 TICs, 9 days; read-out: Tumor Initiating Cell GI50 Range Colon 12.

Text for TICs (Colon 12): Materials and Methods: Non-tissue or tissue cultured treated T-75 flask and 96-well plates were purchased from VWR. Vitamin B-27 supplement, MEM NEAA (minimum essential medium non essential amino acids), sodium pyruvate, L-glutamine, N2 supplement, penicillin-streptomycin and fungizone/amphotericin B were obtained from Invitrogen. Lipid mixture, heparin and EGF were purchased from Sigma; bFGF from BD Biosciences. Tumor Initiating Cells (TICs) from colon were routinely maintained using non-tissue cultured treated T-75 flasks in DMEM:F12 medium containing 0.2×B-27 supplement, 4 ug/ml heparin, 1×MEM NEAA, 1× sodium pyruvate, 1 mM glutamine, 10 pg/ul bFGF, 20 pg/ul EGF, 1×N2 supplement, lipid mixture, penicillin-streptomycin and fungizone/amphotericin B. Ovarian TICs were routinely maintained using tissue cultured treated T-75 flasks in DMEM:F12 medium containing 1×B-27 supplement, 4 ug/ml heparin, 20 pg/ul bFGF, 20 pg/ul EGF and penicillin-streptomycin.
Assay Protocol: Compounds described herein were dissolved in DMSO and further diluted in cell culture medium for GI50 determination. Colon TICs were trypsinized and seeded into non-tissue cultured treated 96-well plates with 4,000 cells/well. After 24 h, compound was added into the cell culture at different concentrations, and the final concentration of DMSO was adjusted to 0.1%. Cells were then cultured at 37° C. for 9 days. Ovarian TICs were trypsinized and seeded into tissue cultured treated 96-well plates with 1,000 cells/well. After 24 h, compound was added into the cell culture at different concentrations, and the final concentration of DMSO was adjusted to 0.1%. Cells were then cultured at 37° C. for 6 days. Cell viability was assessed by Alamar Blue assay: 10 ul of Alamar Blue was added into each well. After 4 hours incubation at 37° C., fluorescence was recorded at excitation 544 and emission 590. GI50 (Growth inhibition) was calculated using GraphPad Prism 4.0 software.

For the compound `O=C(N[C@H](c1ccccc1F)C1CC1)c1ccc2[nH]nc(-c3ccc(N4C5CCC4CC(O)C5)cc3)c2c1` (stereo partly drawn) [Example A265, N-((S)-cyclopropyl(2-fluorophenyl)methyl)-3-(4-((1R,3R,5S)-3-hydroxy-8-azabicyclo[3.2.1]octan-8-yl)phenyl)-1H-indazole-5-carboxamide], the GI50 (in the experiment on TICs (Ovarian 2393A); with Breast cancer cells; in experiment [1]; in experiment [2]; in the experiment with TICs (Colon 12)) was below 100 nM throughout. Also, on human TTK, the concentration for half-maximal inhibition (IC50) was below 100 nM.
`O=C(N[C@@H](c1ccccn1)C1CCCC1)c1ccc2[nH]nc(-c3ccc(N4CCN(C5COC5)CC4)cc3)c2c1` [Example A411, (R)-N-(cyclopentyl(pyridin-2-yl)methyl)-3-(4-(4-(oxetan-3-yl)piperazin-1-yl)phenyl)-1H-indazole-5-carboxamide]: the GI50 (with TICs (Ovarian 2393A); in the experiment with Breast cancer cells; in experiment [1]; in experiment [2]; with TICs (Colon 12)) was below 100 nM in each case. The IC50 at human TTK is below 100 nM.
As to `CC(C)C(NC(=O)c1ccc2[nH]nc(-c3ccc(O[C@H]4C[C@H]5CC[C@@H](C4)N5C4COC4)cc3)c2c1)c1ccccn1` (stereo partly drawn) [Example A325, N-(2-methyl-1-(pyridin-2-yl)propyl)-3-(4-(((1R,3R,5S)-8-(oxetan-3-yl)-8-azabicyclo[3.2.1]octan-3-yl)oxy)phenyl)-1H-indazole-5-carboxamide], the GI50 is 100 to 500 nM with TICs (Ovarian 2393A); 100 to 500 nM in the experiment with Breast cancer cells; 100 to 500 nM in experiment [1]; 100 to 500 nM in experiment [2]; below 100 nM with TICs (Colon 12). For the same compound, the half-maximal inhibitory concentration (IC50) at human TTK is below 100 nM.
Consider `O=C(N[C@H](c1ccccn1)C1CC1)c1ccc2[nH]nc(-c3ccc4c(c3)C(=O)CC3(CCN(C5COC5)CC3)O4)c2c1` [Example A264, (S)-N-(cyclopropyl(pyridin-2-yl)methyl)-3-(1′-(oxetan-3-yl)-4-oxospiro[chroman-2,4′-piperidin]-6-yl)-1H-indazole-5-carboxamide], for which the GI50 with TICs (Ovarian 2393A) is 100 to 500 nM; in the experiment with Breast cancer cells, below 100 nM; in experiment [1], below 100 nM; in experiment [2], below 100 nM; with TICs (Colon 12), 100 to 500 nM. The IC50 at human TTK is below 100 nM.
As to `CC(C)C[C@H](NC(=O)c1ccc2[nH]nc(-c3ccc(N4C5CCC4CC(O)C5)cc3)c2c1)c1ccccc1` (stereo partly drawn) [Example A368, 3-(4-((1R,3S,5S)-3-hydroxy-8-azabicyclo[3.2.1]octan-8-yl)phenyl)-N-((S)-3-methyl-1-phenylbutyl)-1H-indazole-5-carboxamide], the concentration for 50% growth inhibition (GI50) with TICs (Ovarian 2393A) was 100 to 500 nM; in the experiment with Breast cancer cells it was 100 to 500 nM; in experiment [1] it was below 100 nM; in experiment [2] it was below 100 nM; in the experiment with TICs (Colon 12), below 100 nM. Also, the IC50 at human TTK was below 100 nM.
With `CC(C)C[C@H](NC(=O)c1ccc2[nH]nc(-c3ccc(N4[C@@H]5CC[C@H]4COC5)cc3)c2c1)c1ccccn1` [Example A303, 3-(4-((1R,5S)-3-oxa-8-azabicyclo[3.2.1]octan-8-yl)phenyl)-N-((S)-3-methyl-1-(pyridin-2-yl)butyl)-1H-indazole-5-carboxamide], the GI50 (with TICs (Ovarian 2393A); in the experiment with Breast cancer cells; in experiment [1]; in experiment [2]; in the experiment with TICs (Colon 12)) was below 100 nM in each case. Also, the half-maximal inhibitory concentration (IC50) at human TTK is below 100 nM.
In the case of `CN1CCC(Oc2ccc(-c3n[nH]c4ccc(C(=O)NC(c5ccccc5)C5CC5)cc34)cc2S(C)(=O)=O)CC1` (stereo not drawn) [Example A246, N-(cyclopropyl(phenyl)methyl)-3-(4-((1-methylpiperidin-4-yl)oxy)-3-(methylsulfonyl)phenyl)-1H-indazole-5-carboxamide], the GI50 in the experiment with TICs (Ovarian 2393A) is above 500 nM; with Breast cancer cells, above 500 nM; in experiment [1], 100 to 500 nM; in experiment [2] it was below 100 nM; in the experiment with TICs (Colon 12), above 500 nM. In addition, the IC50 at human TTK was below 100 nM.
In the case of `O=C(N[C@H](c1ccccn1)C1CCCC1)c1ccc2[nH]nc(-c3ccc(N4CCCN(C5COC5)CC4)cc3)c2c1` [Example A370, (S)-N-(cyclopentyl(pyridin-2-yl)methyl)-3-(4-(4-(oxetan-3-yl)-1,4-diazepan-1-yl)phenyl)-1H-indazole-5-carboxamide], the GI50 was 100 to 500 nM in the experiment with TICs (Ovarian 2393A); below 100 nM in the experiment with Breast cancer cells; below 100 nM in experiment [1]; below 100 nM in experiment [2]; below 100 nM in the experiment on TICs (Colon 12). Also, the IC50 at human TTK is below 100 nM.
Regarding `CC(C)[C@H](NC(=O)c1ccc2[nH]nc(-c3ccc(N4C5COCC4CC(O)C5)cc3)c2c1)c1ccccc1Cl` (stereo partly drawn) [Example A421, N((S)-1-(2-chlorophenyl)-2-methylpropyl)-3-(4-((1R,5S,7R)-7-hydroxy-3-oxa-9-azabicyclo [3.3.1]nonan-9-yl)phenyl)-1H-indazole-5-carboxamide], the GI50 (in the experiment on TICs (Ovarian 2393A); in the experiment with Breast cancer cells; in experiment [1]; in experiment [2]; in the experiment with TICs (Colon 12)) was below 100 nM in each case. Moreover, the IC50 at human TTK is below 100 nM.
As to `CC(C)[C@H](NC(=O)c1ccc2[nH]nc(-c3ccc(OC4CCN(C)CC4)cc3)c2c1)c1ccccc1Cl` [Example A273, (S)-N-(1-(2-chlorophenyl)-2-methylpropyl)-3-(4-((1-methylpiperidin-4-yl)oxy)phenyl)-1H-indazole-5-carboxamide], the GI50 (with TICs (Ovarian 2393A); in the experiment with Breast cancer cells; in experiment [1]; in experiment [2]; with TICs (Colon 12)) was below 100 nM throughout. Further, the IC50 at human TTK is below 100 nM.
Regarding `CC(C)C(NC(=O)c1ccc2[nH]nc(-c3ccc(OC4CC5CCC(C4)N5C)cc3)c2c1)c1ccccn1` (stereo not drawn) [Example A395, N-(2-methyl-1-(pyridin-2-yl)propyl)-3-(4-((8-methyl-8-azabicyclo [3.2.1]octan-3-yl)oxy)phenyl)-1H-indazole-5-carboxamide], the GI50 was 100 to 500 nM in the experiment on TICs (Ovarian 2393A); below 100 nM with Breast cancer cells; below 100 nM in experiment [1]; below 100 nM in experiment [2]; below 100 nM with TICs (Colon 12). For the same compound, the IC50 on human TTK was below 100 nM.
As to `O=C(N[C@H](c1ccccn1)C1CCCC1)c1ccc2[nH]nc(-c3ccc(N4C5COCC4CC(O)C5)cc3)c2c1` (stereo partly drawn) [Example A420, N-((S)-cyclopentyl(pyridin-2-yl)methyl)-3-(4-((1R,5S,7R)-7-hydroxy-3-oxa-9-azabicyclo[3.3.1]nonan-9-yl)phenyl)-1H-indazole-5-carboxamide], the GI50 (in the experiment with TICs (Ovarian 2393A); in the experiment on Breast cancer cells; in experiment [1]; in experiment [2]; in the experiment with TICs (Colon 12)) was below 100 nM throughout. In addition, the IC50 on human TTK was below 100 nM.
Take `CN1C2CCC1CC(Oc1ccc(-c3n[nH]c4ccc(C(=O)N[C@H](c5ccccc5)C5CC5)cc34)cc1)C2` (stereo partly drawn) [Example A376, N-((S)-cyclopropyl(phenyl)methyl)-3-(4-(((1R,3R,5S)-8-methyl-8-azabicyclo[3.2.1]octan-3-yl)oxy)phenyl)-1H-indazole-5-carboxamide]: the GI50 in the experiment on TICs (Ovarian 2393A) was 100 to 500 nM; in the experiment on Breast cancer cells, 100 to 500 nM; in experiment [1] it was below 100 nM; in experiment [2], below 100 nM; in the experiment with TICs (Colon 12), 100 to 500 nM. For the same compound, the 50% inhibitory concentration (IC50) on human TTK was below 100 nM.
In the case of `CC1=CC2(CCN(C)CC2)Oc2ccc(-c3n[nH]c4ccc(C(=O)N[C@H](c5ccccn5)C5CC5)cc34)cc21` [Example A260, (S)-N-(cyclopropyl(pyridin-2-yl)methyl)-3-(1′,4-dimethylspiro[chromene-2,4′-piperidin]-6-yl)-1H-indazole-5-carboxamide], the 50% growth inhibitory concentration (GI50) in the experiment with TICs (Ovarian 2393A) is below 100 nM; in the experiment with Breast cancer cells, below 100 nM; in experiment [1], below 100 nM; in experiment [2], below 100 nM; with TICs (Colon 12), 100 to 500 nM. Further, at human TTK, the IC50 was below 100 nM.
Turning to `CN1C2CCC1CC(Oc1ccc(-c3n[nH]c4ccc(C(=O)N[C@@H](c5ccccc5)C5CC5)cc34)cc1)C2` (stereo partly drawn) [Example A378, N-((R)-cyclopropyl(phenyl)methyl)-3-(4-(((1R,3R,5S)-8-methyl-8-azabicyclo[3.2.1]octan-3-yl)oxy)phenyl)-1H-indazole-5-carboxamide], the GI50 in the experiment on TICs (Ovarian 2393A) was 100 to 500 nM; in the experiment with Breast cancer cells, 100 to 500 nM; in experiment [1], below 100 nM; in experiment [2], below 100 nM; in the experiment with TICs (Colon 12), 100 to 500 nM. At human TTK, the IC50 was below 100 nM.
